Reference: article PMC5902452, “In silico optimization of a guava antimicrobial peptide enables combinatorial exploration for peptide design” (Nature Communications, 2018)
Converted amounts (≈) assume the structure as drawn. Peptide text beside a SMILES is read from it.

What was measured:
[1] = system: P. aeruginosa H1001 (fliC::luxCDABE); assay type: cell-based, Pseudomonas aeruginosa; conditions: SPOT-synthesized unpurified crude peptide (~70% purity); bioluminescent engineered P. aeruginosa; BM2 medium; 4 h, 37 °C; reduction of luminescence; 200 to 3 μg mL−1 tested
Procedure: A peptide array composed of 20 peptides (15 guavanins, 4 Pg-AMP1 fragments, and magainin 2) was designed and synthesized by Kinexus Bioinformatics Corporation (Vancouver, BC). Peptides were produced in a standard mass of 80 μg by using cellulose support in SPOT technology. The crude synthetic peptides were obtained from cellulose membrane discs that had already been treated with ammonia gas to release the peptides from the membrane. Peptides were then dissolved overnight in distilled water and subsequently evaluated for their biological activities, as described below.
The antimicrobial activity of the synthesized peptides was evaluated against an engineered luminescent P. aeruginosa H1001 (fliC::luxCDABE) strain in 96-well microplates. Aqueous solutions of peptides released from the cellulose spots were diluted twofold in BM2 medium [62 mM potassium phosphate buffer pH 7; 2 mM MgSO4; 10 μM FeSO4; 0.4% (wt/vol) glucose] down the eight wells of a 96-well plate, achieving a final volume of 25 μL in each well. Subsequently, 50 μL of overnight culture of P. aeruginosa H1001 (fliC::luxCDABE) were subcultured in 5 mL of fresh LB media and grown until they reached an OD600 of 0.4. This growing bacteria culture was then diluted 4:100 (v/v) into fresh BM2 media and 25 μL of this diluted bacterial culture was transferred to the microplate wells containing 25 μL of peptide solution. The final peptide concentrations tested ranged from 200 to 3 μg mL^−1. The plates were incubated for 4 h at 37 °C with constant shaking at 50 rpm. Luminescence was measured on a Tecan […]luor Plus Microplate Reader (Tecan US, Morrisville, NC). The antimicrobial activity was evaluated by the ability of the peptides to reduce the luminescence of P. aeruginosa-lux strain compared to untreated cells. The AMP magainin 2 and the carbapenem meropenem were used as positive controls and distilled water was used as a negative control.

[2] = system: human erythrocytes; assay: Hemolytic assay; conditions: SPOT-synthesized crude peptides; human red blood cells in NaCl 0.85%, 1 h, 37 °C; hemoglobin release at 546 nm; highest concentration 200 μg mL−1; 100% of hemolysis was not observed
Procedure: Fresh human venous blood was collected from volunteers in Vacutainer collection tubes containing sodium heparin as an anticoagulant (BD Biosciences, Franklin Lakes, NJ). The blood was centrifuged applying 151 × g force (1500 rpm) and the serum was removed and the blood cells were replaced and washed three times with the same volume of sterile NaCl 0.85% solution. Concentrated red blood cells were diluted tenfold in NaCl 0.85% solution and then exposed at twofold dilutions of peptides for 1 h at 37 °C, at identical concentrations used for antimicrobial assays, in the ratio of 1:1 (v/v), achieving a final volume of 100 μL. The assay was carried out in 96-well polypropylene microtiter plates. The positive control wells contained 1% of Triton X-100, representing 100% cell lysis, and negative control wells contained sterile saline. Hemoglobin release was monitored chromogenically at 546 nm using a microplate reader.

SMILES	MIC [1]	Hemolysis [2]
CC[C@H](C)[C@H](NC(=O)[C@H](CCCNC(=N)N)NC(=O)[C@H](CC(N)=O)NC(=O)CNC(=O)[C@H](Cc1ccc(O)cc1)NC(=O)[C@H](CCCNC(=N)N)NC(=O)[C@H](CO)NC(=O)[C@H](C)NC(=O)[C@H](CCC(N)=O)NC(=O)[C@H](CCC(=O)O)NC(=O)[C@H](Cc1ccc(O)cc1)NC(=O)[C@H](CS)NC(=O)[C@H](CCCCN)NC(=O)[C@H](CCSC)NC(=O)[C@H](Cc1ccccc1)NC(=O)[C@H](CO)NC(=O)[C@@H](N)CCCNC(=N)N)C(=O)N[C@@H](CC(C)C)C(=O)N[C@@H](CCCNC(=N)N)C(=O)N[C@@H](CCCNC(=N)N)C(N)=O [Guavanin 14] (H-RSFMKCYEQASRYGNRILRR-NH2)	12.5 µg/mL (≈ 4.93 µM)	> 200 µg/mL
CC[C@H](C)[C@H](NC(=O)CN)C(=O)NCC(=O)N[C@@H](CCCCN)C(=O)N[C@@H](Cc1ccccc1)C(=O)N[C@@H](CC(C)C)C(=O)N[C@@H](Cc1c[nH]cn1)C(=O)N[C@@H](CO)C(=O)N[C@@H](C)C(=O)N[C@@H](CCCCN)C(=O)N[C@@H](CCCCN)C(=O)N[C@@H](Cc1ccccc1)C(=O)NCC(=O)N[C@@H](CCCCN)C(=O)N[C@@H](C)C(=O)N[C@@H](Cc1ccccc1)C(=O)N[C@H](C(=O)NCC(=O)N[C@@H](CCC(=O)O)C(=O)N[C@H](C(=O)N[C@@H](CCSC)C(=O)N[C@@H](CC(N)=O)C(=O)N[C@@H](CO)C(N)=O)[C@@H](C)CC)C(C)C [Magainin 2, reference compound] (H-GIGKFLHSAKKFGKAFVGEIMNS-NH2)	100 µg/mL (≈ 40.6 µM)	
CSCC[C@H](NC(=O)[C@H](Cc1ccc(O)cc1)NC(=O)[C@H](CCC(N)=O)NC(=O)[C@@H](N)CCCNC(=N)N)C(=O)N[C@@H](CCCNC(=N)N)C(=O)N[C@@H](Cc1ccc(O)cc1)C(=O)N[C@@H](CC(C)C)C(=O)N[C@@H](CCC(=O)O)C(=O)N[C@@H](CCC(N)=O)C(=O)N[C@@H](C)C(=O)N[C@@H](CCC(=O)O)C(=O)N[C@@H](CCCNC(=N)N)C(=O)N[C@@H](Cc1ccc(O)cc1)C(=O)N[C@H](C(=O)N[C@@H](CC(N)=O)C(=O)N[C@@H](CCCNC(=N)N)C(=O)N[C@@H](CC(N)=O)C(=O)N[C@@H](CC(C)C)C(=O)N[C@@H](CCCNC(=N)N)C(=O)N[C@@H](CCCNC(=N)N)C(N)=O)C(C)C [Guavanin 4] (H-RQYMRYLEQAERYVNRNLRR-NH2)	100 µg/mL (≈ 36.8 µM)	> 200 µg/mL
CSCC[C@H](NC(=O)[C@H](CCCNC(=N)N)NC(=O)[C@H](CO)NC(=O)[C@@H](N)CO)C(=O)N[C@@H](CCC(=O)O)C(=O)N[C@@H](CS)C(=O)N[C@@H](Cc1ccc(O)cc1)C(=O)N[C@@H](CCC(=O)O)C(=O)N[C@@H](CCC(N)=O)C(=O)N[C@@H](C)C(=O)N[C@@H](CCC(=O)O)C(=O)N[C@@H](CCCNC(=N)N)C(=O)N[C@@H](Cc1ccc(O)cc1)C(=O)NCC(=O)N[C@@H](Cc1ccc(O)cc1)C(=O)NCC(=O)NCC(=O)N[C@@H](Cc1ccc(O)cc1)C(=O)NCC(=O)NCC(N)=O [Fragment 1 (α-helix)] (H-SSRMECYEQAERYGYGGYGG-NH2)	> 200 µg/mL	> 200 µg/mL
CC[C@H](C)[C@H](NC(=O)[C@H](C)NC(=O)[C@H](CCC(=O)O)NC(=O)[C@H](CCC(=O)O)NC(=O)[C@H](Cc1ccc(O)cc1)NC(=O)[C@H](CCC(N)=O)NC(=O)[C@H](CCCNC(=N)N)NC(=O)[C@H](CCSC)NC(=O)[C@H](Cc1ccc(O)cc1)NC(=O)[C@H](CCCCN)NC(=O)[C@@H](N)CCCNC(=N)N)C(=O)N[C@@H](CCCNC(=N)N)C(=O)N[C@@H](CC(=O)O)C(=O)NCC(=O)N[C@@H](CC(N)=O)C(=O)N[C@@H](CCCNC(=N)N)C(=O)N[C@@H](CO)C(=O)N[C@H](C(=O)N[C@@H](CCCNC(=N)N)C(=O)N[C@@H](CCCNC(=N)N)C(N)=O)[C@@H](C)CC [Guavanin 3] (H-RKYMRQYEEAIRDGNRSIRR-NH2)	> 200 µg/mL	> 200 µg/mL
N=C(N)NCCC[C@H](NC(=O)CNC(=O)[C@H](CO)NC(=O)CNC(=O)[C@H](Cc1ccc(O)cc1)NC(=O)CNC(=O)CNC(=O)CNC(=O)[C@H](Cc1ccc(O)cc1)NC(=O)[C@H](CCCNC(=N)N)NC(=O)CNC(=O)CNC(=O)CNC(=O)[C@H](Cc1ccc(O)cc1)NC(=O)CNC(=O)CNC(=O)[C@H](Cc1ccc(O)cc1)NC(=O)CNC(=O)[C@H](Cc1ccc(O)cc1)NC(=O)[C@@H](N)CCCNC(=N)N)C(N)=O [Fragment 2 (net charge)] (H-RYGYGGYGGGRYGGGYGSGR-NH2)	200 µg/mL (≈ 99.2 µM)	100 µg/mL
CC[C@H](C)[C@H](NC(=O)[C@H](CCCNC(=N)N)NC(=O)[C@H](CC(N)=O)NC(=O)[C@H](Cc1ccccc1)NC(=O)[C@H](Cc1ccc(O)cc1)NC(=O)[C@H](CCCNC(=N)N)NC(=O)[C@H](Cc1ccccc1)NC(=O)[C@H](C)NC(=O)[C@H](CCC(=O)O)NC(=O)[C@H](CCC(=O)O)NC(=O)[C@H](Cc1ccc(O)cc1)NC(=O)[C@H](CCSC)NC(=O)[C@H](CCC(=O)O)NC(=O)[C@H](CCSC)NC(=O)[C@H](CC(C)C)NC(=O)[C@H](CCCCN)NC(=O)[C@@H](N)CCCNC(=N)N)C(=O)N[C@@H](CO)C(=O)N[C@@H](CCCNC(=N)N)C(=O)N[C@@H](CCCNC(=N)N)C(N)=O [Guavanin 5] (H-RKLMEMYEEAFRYFNRISRR-NH2)	100 µg/mL (≈ 37.1 µM)	> 200 µg/mL
CSCC[C@H](NC(=O)[C@H](CC(C)C)NC(=O)[C@H](Cc1ccc(O)cc1)NC(=O)[C@@H](N)CCCNC(=N)N)C(=O)N[C@@H](CCC(=O)O)C(=O)N[C@@H](Cc1ccc(O)cc1)C(=O)N[C@@H](C)C(=O)N[C@@H](CCC(=O)O)C(=O)N[C@@H](CCC(N)=O)C(=O)N[C@@H](C)C(=O)N[C@@H](CCCCN)C(=O)N[C@@H](CCCNC(=N)N)C(=O)N[C@@H](CC(=O)O)C(=O)N[C@@H](C)C(=O)N[C@@H](CCCCN)C(=O)N[C@@H](CCCNC(=N)N)C(=O)N[C@@H](C)C(=O)N[C@@H](Cc1ccc(O)cc1)C(=O)N[C@@H](CCCNC(=N)N)C(=O)N[C@@H](CCCNC(=N)N)C(N)=O [Guavanin 10] (H-RYLMEYAEQAKRDAKRAYRR-NH2)	200 µg/mL (≈ 77.7 µM)	> 200 µg/mL
N=C(N)NCCC[C@H](NC(=O)CNC(=O)[C@H](CO)NC(=O)CNC(=O)[C@H](Cc1ccc(O)cc1)NC(=O)CNC(=O)CNC(=O)CNC(=O)[C@H](Cc1ccc(O)cc1)NC(=O)[C@H](CCCNC(=N)N)NC(=O)CNC(=O)CNC(=O)CNC(=O)[C@H](Cc1ccc(O)cc1)NC(=O)CNC(=O)CNC(=O)[C@H](Cc1ccc(O)cc1)NC(=O)CNC(=O)[C@@H](N)Cc1ccc(O)cc1)C(=O)NCC(N)=O [Fragment 3 (hydrophobicity)] (H-YGYGGYGGGRYGGGYGSGRG-NH2)	> 200 µg/mL	> 200 µg/mL
CC[C@H](C)[C@H](NC(=O)[C@H](CC(C)C)NC(=O)[C@H](CCC(=O)O)NC(=O)[C@H](CCSC)NC(=O)[C@H](CC(C)C)NC(=O)[C@H](CCC(N)=O)NC(=O)[C@@H](N)CCCNC(=N)N)C(=O)N[C@@H](CCC(=O)O)C(=O)N[C@@H](CCC(N)=O)C(=O)N[C@@H](C)C(=O)N[C@@H](CCC(=O)O)C(=O)N[C@@H](CCCNC(=N)N)C(=O)N[C@@H](Cc1ccc(O)cc1)C(=O)NCC(=O)N[C@@H](CC(N)=O)C(=O)N[C@@H](CCCNC(=N)N)C(=O)N[C@@H](Cc1ccccc1)C(=O)N[C@@H](Cc1ccc(O)cc1)C(=O)N[C@@H](CCCNC(=N)N)C(=O)N[C@@H](CCCNC(=N)N)C(N)=O [Guavanin 11] (H-RQLMELIEQAERYGNRFYRR-NH2)	> 200 µg/mL	> 200 µg/mL
CC(C)[C@H](NC(=O)CNC(=O)[C@H](CCC(N)=O)NC(=O)CNC(=O)[C@@H](NC(=O)[C@@H]1CCCN1C(=O)[C@H](CCC(N)=O)NC(=O)CN)C(C)C)C(=O)N[C@@H](CCC(=O)O)C(=O)N[C@@H](CCCNC(=N)N)C(=O)N[C@@H](CO)C(=O)N[C@@H](Cc1c[nH]cn1)C(=O)N[C@@H](CC(=O)O)C(=O)N[C@@H](CC(=O)O)C(=O)N[C@@H](CC(N)=O)C(=O)N[C@@H](CCCNC(=N)N)C(=O)N[C@@H](CC(N)=O)C(=O)N[C@@H](CCC(N)=O)C(=O)N1CCC[C@H]1C(=O)N[C@@H](CCCNC(=N)N)C(N)=O [Fragment 4 (hydrophobic moment)] (H-GQPVGQGVERSHDDNRNQPR-NH2)	> 200 µg/mL	> 200 µg/mL
CC[C@H](C)[C@H](NC(=O)CNC(=O)[C@H](CCCNC(=N)N)NC(=O)[C@H](CCC(N)=O)NC(=O)CNC(=O)[C@H](CCCCN)NC(=O)[C@H](CCCNC(=N)N)NC(=O)[C@H](CC(C)C)NC(=O)[C@H](C)NC(=O)[C@H](CCCNC(=N)N)NC(=O)[C@H](CCC(=O)O)NC(=O)[C@H](Cc1ccc(O)cc1)NC(=O)[C@H](C)NC(=O)[C@H](CCC(=O)O)NC(=O)[C@H](Cc1ccc(O)cc1)NC(=O)[C@H](Cc1ccc(O)cc1)NC(=O)[C@H](CO)NC(=O)[C@@H](N)CCCNC(=N)N)C(=O)N[C@@H](CCCNC(=N)N)C(=O)N[C@@H](CCCNC(=N)N)C(N)=O [Guavanin 8] (H-RSYYEAYERALRKGQRGIRR-NH2)	100 µg/mL (≈ 39.6 µM)	> 200 µg/mL
